Assay results published in patent publication US9873709B2 (priority 2013, dated 2018).

System: JAK1-dependent STAT6 phosphorylation downstream of IL-13 stimulation in TF-1 human erythroleukemia cells
Assay: cells
Details: TF-1, read-out: IL-13-pSTAT6 IC50

Structure (SMILES) | IC50 [µM]
CCOC(=O)N1CC=C(c2cccn3nc(Nc4ccc(C(=O)N5CC6(CCN(C)C6)C5)cc4)nc23)CC1 [Example 2-68, ethyl 4-[2-[4-(7-methyl-2,7-diazaspiro[3.4]octane-2-carbonyl)anilino]-[1,2,4]triazolo[1,5-a]pyridin-8-yl]-3,6-dihydro-2H-pyridine-1-carboxylate] | 0.0119
CCOC(=O)N1CC=C(c2cccn3nc(Nc4ccc(C(=O)N5CCC6CNCC65)cc4)nc23)CC1 (stereo not drawn) [Example 2-308, ethyl 4-[2-[4-(3,3a,4,5,6,6a-hexahydro-2H-pyrrolo[2,3-c]pyrrole-1-carbonyl)anilino]-[1,2,4]triazolo[1,5-a]pyridin-8-yl]-3,6-dihydro-2H-pyridine-1-carboxylate] | 0.0761
Cc1ncccc1CNC(=O)c1ccc(Nc2nc3c(C4=CCN(C(=O)CCC(F)(F)F)CC4)cccn3n2)cc1 [Example 2-42, N-[(2-methyl-3-pyridyl)methyl]-4-[[8-[1-(4,4,4-trifluorobutanoyl)-3,6-dihydro-2H-pyridin-4-yl]-[1,2,4]triazolo[1,5-a]pyridin-2-yl]amino]benzamide] | 0.0047
CCOC(=O)N1CC=C(c2cccn3nc(Nc4ccc(C(=O)N5CCCC5c5ccc(C)cn5)cc4)nc23)CC1 (stereo not drawn) [Example 2-67, ethyl 4-[2-[4-[2-(5-methyl-2-pyridyl)pyrrolidine-1-carbonyl]anilino]-[1,2,4]triazolo[1,5-a]pyridin-8-yl]-3,6-dihydro-2H-pyridine-1-carboxylate] | 0.0409
O=C(NC1CCNC1)c1ccc(Nc2nc3c(N4CCC(O)(c5ccc(Cl)cc5)CC4)cccn3n2)cc1 (stereo not drawn) [Example 1-176, 4-[[8-[4-(4-chlorophenyl)-4-hydroxy-1-piperidyl]-[1,2,4]triazolo[1,5-a]pyridin-2-yl]amino]-N-pyrrolidin-3-yl-benzamide] | 0.279
O=C(CCC(F)(F)F)N1CC=C(c2cccn3nc(Nc4ccc(C(=O)N5CCC6(CCNC6)CC5)cc4)nc23)CC1 [Example 2-136, 1-[4-[2-[4-(2,8-diazaspiro[4.5]decane-8-carbonyl)anilino]-[1,2,4]triazolo[1,5-a]pyridin-8-yl]-3,6-dihydro-2H-pyridin-1-yl]-4,4,4-trifluoro-butan-1-one] | 0.163
O=C(c1ccc(Nc2nc3c(N4CCC(O)(c5ccc(Cl)cc5)CC4)cccn3n2)cc1)N1CCCN(c2ccncc2)CC1 [Example 1-114, [4-[[8-[4-(4-chlorophenyl)-4-hydroxy-1-piperidyl]-[1,2,4]triazolo[1,5-a]pyridin-2-yl]amino]phenyl]-[4-(4-pyridyl)-1,4-diazepan-1-yl]methanone] | 0.0297
CCOC(=O)N1CC=C(c2cccn3nc(Nc4ccc(C(=O)NCc5cccnc5C)cc4)nc23)CC1 [Example 2-177, ethyl 4-[2-[4-[(2-methyl-3-pyridyl)methylcarbamoyl]anilino]-[1,2,4]triazolo[1,5-a]pyridin-8-yl]-3,6-dihydro-2H-pyridine-1-carboxylate] | 0.0154
CN(C(=O)c1ccc(Nc2nc3c(C4=CCN(C(=O)CCC(F)(F)F)CC4)cccn3n2)cc1)C1CCN(Cc2ccccc2)C1 (stereo not drawn) [Example 2-473, N-(1-benzylpyrrolidin-3-yl)-N-methyl-4-[[8-[1-(4,4,4-trifluorobutanoyl)-3,6-dihydro-2H-pyridin-4-yl]-[1,2,4]triazolo[1,5-a]pyridin-2-yl]amino]benzamide] | 0.0481
CNCCNC(=O)c1ccc(Nc2nc3c(C4=CCN(C(=O)CCC(F)(F)F)CC4)cccn3n2)cc1 [Example 2-31, N-[2-(methylamino)ethyl]-4-[[8-[1-(4,4,4-trifluorobutanoyl)-3,6-dihydro-2H-pyridin-4-yl]-[1,2,4]triazolo[1,5-a]pyridin-2-yl]amino]benzamide] | 0.181
CCOC(=O)N1CC=C(c2cccn3nc(Nc4ccc(C(=O)N5CC(C(=O)N(C)C)C5)cc4)nc23)CC1 [Example 2-115, ethyl 4-[2-[4-[3-(dimethylcarbamoyl)azetidine-1-carbonyl]anilino]-[1,2,4]triazolo[1,5-a]pyridin-8-yl]-3,6-dihydro-2H-pyridine-1-carboxylate] | 0.019
CCOC(=O)N1CC=C(c2cccn3nc(Nc4ccc(C(=O)N5CC6(CCCNC6)C5)cc4)nc23)CC1 [Example 2-185, ethyl 4-[2-[4-(2,8-diazaspiro[3,5]nonane-2-carbonyl)anilino]-[l,2,4]triazolo[l,5-a]pyridin-8-yl]-3,6-dihydro-2H-pyridine-1-carboxylate] | 0.0299
O=C(CCC(F)(F)F)N1CC=C(c2cccn3nc(Nc4ccc(C(=O)N5CCN(CCn6ccnc6)CC5)cc4)nc23)CC1 [Example 2-462, 4,4,4-trifluoro-1-[4-[2-[4-[4-(2-imidazol-1-ylethyl)piperazine-1-carbonyl]anilino]-[1,2,4]triazolo[1,5-a]pyridin-8-yl]-3,6-dihydro-2H-pyridin-1-yl]butan-1-one] | 0.0444
CN1CCC(N(C)C(=O)c2ccc(Nc3nc4c(C5=CCN(C(=O)OCC6CC6)CC5)cccn4n3)cc2)CC1 [Example 2-353, cyclopropylmethyl 4-[2-[4-[methyl-(1-methyl-4-piperidyl)carbamoyl]anilino]-[1,2,4]triazolo[1,5-a]pyridin-8-yl]-3,6-dihydro-2H-pyridine-1-carboxylate] | 0.0327
CCOC(=O)N1CC=C(c2cccn3nc(Nc4ccc(C(=O)NCC5CCCN(C)C5)cc4)nc23)CC1 (stereo not drawn) [Example 2-293, ethyl 4-[2-[4-[(1-methyl-3-piperidyl)methylcarbamoyl]anilino]-[1,2,4]triazolo[1,5-a]pyridin-8-yl]-3,6-dihydro-2H-pyridine-1-carboxylate] | 0.0295
CCOC(=O)N1CC=C(c2cccn3nc(Nc4ccc(C(=O)NC5CCCNC5)cc4)nc23)CC1 (stereo not drawn) [Example 2-113, ethyl 4-[2-[4-(3-piperidylcarbamoyl)anilino]-[1,2,4]triazolo[1,5-a]pyridin-8-yl]-3,6-dihydro-2H-pyridine-1-carboxylate] | 0.0968
CN1CC2CN(C(=O)c3ccc(Nc4nc5c(C6=CCN(C(=O)CCC(F)(F)F)CC6)cccn5n4)cc3)CC2C1 (stereo not drawn) [Example 2-87, 4,4,4-trifluoro-1-[4-[2-[4-(2-methyl-1,3,3a,4,6,6a-hexahydropyrrolo[3,4-c]pyrrole-5-carbonyl)anilino]-[1,2,4]triazolo[1,5-a]pyridin-8-yl]-3,6-dihydro-2H-pyridin-1-yl]butan-1-one] | 0.0086
Cc1cccnc1CN(C)C(=O)c1ccc(Nc2nc3c(C4=CCN(C(=O)CCC(F)(F)F)CC4)cccn3n2)cc1 [Example 2-476, N-methyl-N-[(3-methyl-2-pyridyl)methyl]-4-[[8-[1-(4,4,4-trifluorobutanoyl)-3,6-dihydro-2H-pyridin-4-yl]-[1,2,4]triazolo[1,5-a]pyridin-2-yl]amino]benzamide] | 0.0105
O=C(CCC(F)(F)F)N1CC=C(c2cccn3nc(Nc4ccc(C(=O)N5CCCC56CCCNC6)cc4)nc23)CC1 (stereo not drawn) [Example 2-257, 1-[4-[2-[4-(1,9-diazaspiro[4.5]decane-1-carbonyl)anilino]-[1,2,4]triazolo[1,5-a]pyridin-8-yl]-3,6-dihydro-2H-pyridin-1-yl]-4,4,4-trifluoro-butan-1-one] | 0.0605
O=C(CCC(F)(F)F)N1CC=C(c2cccn3nc(Nc4ccc(C(=O)N5CCC(N6CCCC6)CC5)cc4)nc23)CC1 [Example 2-46, 4,4,4-trifluoro-1-[4-[2-[4-(4-pyrrolidin-1-ylpiperidine-1-carbonyl)anilino]-[1,2,4]triazolo[1,5-a]pyridin-8-yl]-3,6-dihydro-2H-pyridin-1-yl]butan-1-one] | 0.0205
O=C(NCCN1CCCCC1)c1ccc(Nc2nc3c(C4=CCN(C(=O)CCC(F)(F)F)CC4)cccn3n2)cc1 [Example 2-455, N-[2-(1-piperidyl)ethyl]-4-[[8-[1-(4,4,4-trifluorobutanoyl)-3,6-dihydro-2H-pyridin-4-yl]-[1,2,4]triazolo[1,5-a]pyridin-2-yl]amino]benzamide] | 0.0055
O=C(CCC(F)(F)F)N1CC=C(c2cccn3nc(Nc4ccc(C(=O)N5CCC6(CCNCC6)CC5)cc4)nc23)CC1 [Example 2-29, 1-[4-[2-[4-(3,9-diazaspiro[5.5]undecane-3-carbonyl)anilino]-[1,2,4]triazolo[1,5-a]pyridin-8-yl]-3,6-dihydro-2H-pyridin-1-yl]-4,4,4-trifluoro-butan-1-one] | 0.0803
CN(CCc1ccccn1)C(=O)c1ccc(Nc2nc3c(C4=CCN(C(=O)CCC(F)(F)F)CC4)cccn3n2)cc1 [Example 2-152, N-methyl-N-[2-(2-pyridyl)ethyl]-4-[[8-[1-(4,4,4-trifluorobutanoyl)-3,6-dihydro-2H-pyridin-4-yl]-[1,2,4]triazolo[1,5-a]pyridin-2-yl]amino]benzamide] | 0.0093
CN(Cc1ccccc1-c1cccnc1)C(=O)c1ccc(Nc2nc3c(C4=CCN(C(=O)CCC(F)(F)F)CC4)cccn3n2)cc1 [Example 2-104, N-methyl-N-[[2-(3-pyridyl)phenyl]methyl]-4-[[8-[1-(4,4,4-trifluorobutanoyl)-3,6-dihydro-2H-pyridin-4-yl]-[1,2,4]triazolo[1,5-a]pyridin-2-yl]amino]benzamide] | 0.0597
COC(=O)N1CC=C(c2cccn3nc(Nc4ccc(C(=O)N(C)C5CCN(C)CC5)cc4)nc23)CC1 [Example 2-224, methyl 4-[2-[4-[methyl-(1-methyl-4-piperidyl)carbamoyl]anilino]-[1,2,4]triazolo[1,5-a]pyridin-8-yl]-3,6-dihydro-2H-pyridine-1-carboxylate] | 0.204
NC1CN(C(=O)c2ccc(Nc3nc4c(C5=CCN(C(=O)CCC(F)(F)F)CC5)cccn4n3)cc2)C1 [Example 2-256, 1-[4-[2-[4-(3-aminoazetidine-1-carbonyl)anilino]-[1,2,4]triazolo[1,5-a]pyridin-8-yl]-3,6-dihydro-2H-pyridin-1-yl]-4,4,4-trifluoro-butan-1-one] | 0.0684
CNC(=O)C1CN(C(=O)c2ccc(Nc3nc4c(C5=CCN(C(=O)CCC(F)(F)F)CC5)cccn4n3)cc2)CCN1C (stereo not drawn) [Example 2-275, N,1-dimethyl-4-[4-[[8-[1-(4,4,4-trifluorobutanoyl)-3,6-dihydro-2H-pyridin-4-yl]-[1,2,4]triazolo[1,5-a]pyridin-2-yl]amino]benzoyl] piperazine-2-carboxamide] | 0.0372
